Consider seven molecules from ChEMBL document CHEMBL1146608, “Design and synthesis of pseudo-symmetric HIV protease inhibitors containing a novel hydroxymethylcarbonyl (HMC)-hydrazide isostere” (Bioorg Med Chem Lett, 2003).

Test [1] has as its target Human immunodeficiency virus type 1 protease (Human immunodeficiency virus 1, UniProt Q72874). Briefly: Inhibitory activity against HIV-1 protease.
Test [2] relates to MT4. Briefly: Cytotoxic effect against HIV-IIIB strain in MT-4 cells. The format is functional. As to conditions: Homo sapiens, read-out: TD50 (the source's name).
The subject of test [3] is MT4. Briefly: Inhibitory concentration against HIV-IIIB strain in MT-4 cells. The format is functional, cell-based. As to conditions: Homo sapiens.
Test [4] can be described thus: Selectivity index expressed as ratio of TD50 to EC50. The format is functional.

Usually Ki stands for the dissociation constant of the complex between target and ligand, obtained from inhibition or displacement. A lower Ki goes with higher affinity. The EC50 is the concentration at which the effect is half-maximal. A higher EC50 goes with weaker potency. Regarding `Cc1c(O)cccc1C(=O)N[C@@H](Cc1ccccc1)[C@H](O)C(=O)N(Cc1ccccc1)NC(=O)c1cccc(O)c1C`, the affinity in test [1], expressed as Ki, was 15 nM. Besides, the CC50 with MT4 [2] worked out at 73 nM. This molecule came in with an EC50 with MT4 [3] of 1.1 nM. For the same molecule, the Therapeutic index in test [4] was 66.
The corresponding values for `Cc1cccc(C)c1OCC(=O)N[C@@H](Cc1ccccc1)[C@H](O)C(=O)N(Cc1ccccc1)NC(=O)c1cccc(O)c1C` are 3 nM, 12 nM, 1.1 nM and 11.
The molecule `Cc1cccc(C)c1OCC(=O)NN(Cc1ccccc1)C(=O)[C@@H](O)[C@H](Cc1ccccc1)NC(=O)c1cccc(O)c1C` showed an inhibition constant (Ki) in test [1] of 5.8 nM. Also, the CC50 with MT4 [2] is 12 nM. The molecule further yielded an EC50 in the test with MT4 [3] of 1.8 nM. The Therapeutic index in test [4] was 6.7.
In turn, `CSC[C@H](NC(=O)OCc1cccc2cnccc12)C(=O)N[C@@H](Cc1ccccc1)[C@H](O)C(=O)N(Cc1ccccc1)NC(=O)c1cccc(O)c1C` yielded a Ki in test [1] of 0.47 nM. Further, the CC50 in the test with MT4 [2] is 23 nM. This molecule registered an EC50 with MT4 [3] of 0.4 nM. In test [4], the Therapeutic index amounted to 58.
Molecule `CSC[C@H](NC(=O)OCc1cccc2cnccc12)C(=O)N[C@@H](Cc1ccccc1)[C@H](O)C(=O)N(Cc1ccccc1)NC(=O)COc1c(C)cccc1C` displayed a Ki in test [1] of 0.25 nM. The CC50 in the test with MT4 [2] was greater than 100 nM. This molecule also registered an EC50 in the test on MT4 [3] of 1.9 nM. Also, the Therapeutic index in test [4] was greater than 53.
In test [1], `Cc1c(O)cccc1C(=O)N[C@@H](Cc1ccccc1)[C@@H](O)C(=O)N(Cc1ccccc1)NC(=O)c1cccc(O)c1C` displayed a Ki of 0.16 nM. In addition, the CC50 in the test on MT4 [2] is 91 nM. In the test on MT4 [3], the EC50 was determined as 1.6 nM. The Therapeutic index in test [4] amounted to 57.
Regarding `Cc1cc(N)cc(C)c1OCC(=O)N[C@@H](Cc1ccccc1)[C@H](O)C(=O)N(Cc1ccccc1)NC(=O)c1cccc(O)c1C`, the affinity in test [1], expressed as Ki, was 5 nM. Besides, the CC50 in the test on MT4 [2] worked out at 35 nM. This molecule also returned an EC50 in the test on MT4 [3] of 0.48 nM. The Therapeutic index in test [4] is 73.
